From BindingDB's records for doi:10.1158/1535-7163.MCT-05-0442 (Celera Genomics, 2006)

Molecular target: Histone deacetylase 1 (Homo sapiens, UniProt Q13547)
Assay: HDAC Inhibition Assay
Conditions: pH 7.4; 22 °C
Procedure: HDAC activity was measured using a continuous trypsin-coupled assay. For inhibitor characterization, measurements were done using 96-well assay plates. Enzyme was mixed with inhibitor at various concentrations and allowed to incubate for 15 minutes. […] Reactions were monitored in a fluorescence plate reader. […] The increase in fluorescence with time was used as the measure of the reaction rate. Inhibition constants Ki(app) were obtained using the program BatchKi.

Chain of Histone deacetylase 1 (Q13547 whole entry): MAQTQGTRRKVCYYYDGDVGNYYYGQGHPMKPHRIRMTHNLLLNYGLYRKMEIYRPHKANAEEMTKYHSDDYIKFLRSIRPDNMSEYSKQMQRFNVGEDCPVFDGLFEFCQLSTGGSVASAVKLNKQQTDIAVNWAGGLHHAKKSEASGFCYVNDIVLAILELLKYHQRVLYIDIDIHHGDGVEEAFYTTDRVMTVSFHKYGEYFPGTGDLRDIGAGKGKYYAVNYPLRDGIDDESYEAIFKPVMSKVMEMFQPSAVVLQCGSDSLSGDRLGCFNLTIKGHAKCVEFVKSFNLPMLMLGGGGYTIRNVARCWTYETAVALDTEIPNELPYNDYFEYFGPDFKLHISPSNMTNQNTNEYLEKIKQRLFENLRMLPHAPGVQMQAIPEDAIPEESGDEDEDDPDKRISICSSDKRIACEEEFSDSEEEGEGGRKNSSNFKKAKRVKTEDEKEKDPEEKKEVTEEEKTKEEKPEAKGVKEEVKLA

Row | Ki | Structure (SMILES)
1 | > 50000 nM | CN(C)Cc1c(C(=O)NCCOc2ccc(C(=O)O)cc2)oc2ccccc12 [4-[2-({3-[(dimethylamino)methyl]-1-benzofuran-2-yl}formamido)ethoxy]benzoic acid]
2 | 6 nM | O=C(NO)c1ccc(OCCNC(=O)c2ccc3ccccc3c2)cc1 [N-{2-[4-(hydroxycarbamoyl)phenoxy]ethyl}naphthalene-2-carboxamide]
3 | 4 nM | O=C(NO)c1ccc(OCCNC(=O)c2cc3ccccc3o2)cc1 [N-{2-[4-(hydroxycarbamoyl)phenoxy]ethyl}-1-benzofuran-2-carboxamide]
4 | 43 nM | O=C(NO)c1ccc(OCCNC(=O)c2ccccc2)cc1 [N-hydroxy-4-[2-(phenylformamido)ethoxy]benzamide]
